Experimental data: patent US20100210518A1, “Peg-lipid conjugates for increasing the solubility of drug compounds” (priority 2009, published 2010)

Details: mouse, in vivo, 25 mg/kg, pH 6
Experimental: Experiments were performed to determine blood levels of Gefitinib formulations after both intravenous and oral dosing. […] Groups of three male mice (B6D2F1) were used for the studies. HPLC-MS analyses were performed on heparinized mouse plasma samples obtained typically at 0 hr, 0.08 hr, 0.5 hr, 1 hr, 2 hr, 4 hr, 7 hr, 16 hr and 24 hr after bolus IV injection. After oral feeding, the analyses were performed at 0 hr, 0.5 hr, 1 hr, 2 hr, 4 hr, 8 hr, 16 hr and 24 hr. To determine the level of each drug, the drug was first isolated from plasma with a sample pre-treatment. Acetonitrile were used to remove proteins in samples. An isocratic HPLC-MS/MS method was then used to separate the drugs from any potential interference. Drug levels were measured by MS detection with a multiple reaction monitoring (MRM) mode. PK data was analyzed using the WinNonlin program (ver. 5.2, Pharsight) compartmental models of analysis.
The drug was administered orally and the dosing strength was 25 mg/kg. The drug was also administered intravenously and the dosing strength was 25 mg/kg in 15% Cremophor EL® and in 10 mM sodium phosphate buffer (pH 6.0). The AUC (31.3) obtained from the IV administration was used for calculating the relative bioavailability (BA).

- relative bioavailability (BA): 56.0%
Substance: 3,4-Di(oleoyloxy)-decaethylene glycol-benzoate [DDGB]
